What was measured:
MDA-MB-231 cells = assay: Apoptosis of MDA-MB-231 cells (propidium iodide, flow cytometry); assay type: cell-based, human; conditions: MDA-MB-231, 25 µg/mL, 24 h, 48 h and 72 h, PI, n = 2
Procedure: Figure 5 Anti-proliferative and apoptotic effect of melittin derivates on the triple-negative breast cancer cell line MDA-MB-231. (A) For the proliferation assay, cells were grown in low density and were treated after 24 h with melittin peptides at a concentration of 25 µg/mL for 72 h. Cells were stained with crystal violet solution. The amount of DNA-bound crystal violet was detected by absorbance measurements. (B) Melt3, 4, and Xac4, which are non-toxic to healthy cells, were further used to test effects on proliferation at 24 h (left) and 48 h (right) at different concentrations. (C) The effects on apoptosis were detected by flow cytometry after 24 h (left), 48 h (middle), and 72 h (right) of treatment. The number of apoptotic cells was determined by staining with propidium iodide (PI). Data are expressed as mean ± SEM. n = 2, * p ≤ 0.05 versus control. Sts, staurosporin 1 µM.
Apoptosis of primary HUVECs was detected according to the method of Nicoletti et al.. […] The percentage of cells with sub-diploidic DNA content was measured using a FACSVerse flow cytometer (BD Biosciences, Heidelberg, Germany).

HEK293T cells [1] = assay: cAMP induction assay (pGloSensor-22F); assay type: cell-based, human; conditions: 2.5 and 25 µg/mL, pGloSensor luminescence, n = 4
Procedure: (§1) Figure 3 Melittin derivates alter the cellular concentration of cyclic adenosine monophosphate (cAMP). (A) For the cAMP induction assay, HEK293T cells transfected with pGloSensor-22F cAMP plasmid were treated with melittin derivates (0.25, 2.5, 25 µg/mL) in presence of the pGloSensor cAMP reagent, and luminescence was detected. (B) For the cAMP inhibition assay, HEK293T cells transfected with pGloSensor-22F cAMP plasmid were treated with melittin derivates (0.25, 2.5, 25 µg/mL) in presence of the pGloSensor cAMP reagent, stimulated with 5 µM forskolin, and luminescence was detected. Data are expressed as mean ± SEM. n = 4, * p ≤ 0.05 versus control.
(§2) HEK293T cells were transfected with pGloSensor-22F cAMP plasmid (E2301, Promega, Walldorf, Germany) using turbofect reagent (Thermofisher Scientific, Frankfurt am Main, Germany). […] For the induction assay (step one), the luminescence was detected (background, 3 measurements every 5 min) and then the melittin peptides (0.25, 2.5, 25 µg/mL) or 5 µM forskolin were added. The luminescence was detected (3 measurements every 5 min) using the plate reader (Spark, Tecan, Männedorf, Switzerland). For the inhibition assay (step tow), the melittin peptide-treated cells were then incubated with 5 µM forskolin and the luminescence was detected (3 measurements every 5 min). […]

HEK293T cells [2] = assay: cAMP inhibition assay (forskolin-stimulated, pGloSensor-22F); assay type: cell-based, human; conditions: 5 µM forskolin, 2.5 and 25 µg/mL, pGloSensor luminescence, n = 4
Procedure: as §1, §2

calmodulin = conditions: cited from earlier work
Description: These two systems are rarely independent but are often antagonistic, sometimes synergistic, or occasionally redundant. Ca^2+ is never elevated without a possible consequence—either positive or negative— ...

| Substance | apoptosis / cancer cell death (MDA-MB-231 cells) | prevention of cAMP synthesis, unstimulated cells (HEK293T cells [1]) | prevention of cAMP synthesis, forskolin-stimulated cells (HEK293T cells [2]) | inhibition of calmodulin function (calmodulin) |
| --- | --- | --- | --- | --- |
| xylopin [Xac4] | trend of decreased proliferation and increased apoptosis | – | – | – |
| melittin [Melt, reference compound] | – | almost completely prevented cAMP synthesis | almost completely prevented cAMP synthesis | competitive inhibitor of the calmodulin function |

Source: article PMC9786170, “The Pharmacological Potential of Novel Melittin Variants from the Honeybee and Solitary Bees against Inflammation and Cancer” (Toxins, 2022)
